Measured values as given in US20220402948A1, “EGFR INHIBITOR, COMPOSITION AND PREPARATION METHOD THEREFOR” (BETTA PHARMACEUTICALS CO., LTD., priority 2019, published 2022).
Read-outs that look alike come from different tables or passages of the source.

How the values were obtained:
[1] = biological target: EGFRΔ19del/T790M/C797S (Homo sapiens, UniProt P00533, T790M/C797S, form not given); test: EGFR Δ19del/T790M/C797S kinase test (mobility variation analysis, Caliper EZ Reader); format: biochemical; details: kinase enzymatic activity, Table 1
EGFRΔ19del/T790M/C797S, sequence (P00533 with tags, fused parts or gaps DEL746-750/T790M/C797S, form open): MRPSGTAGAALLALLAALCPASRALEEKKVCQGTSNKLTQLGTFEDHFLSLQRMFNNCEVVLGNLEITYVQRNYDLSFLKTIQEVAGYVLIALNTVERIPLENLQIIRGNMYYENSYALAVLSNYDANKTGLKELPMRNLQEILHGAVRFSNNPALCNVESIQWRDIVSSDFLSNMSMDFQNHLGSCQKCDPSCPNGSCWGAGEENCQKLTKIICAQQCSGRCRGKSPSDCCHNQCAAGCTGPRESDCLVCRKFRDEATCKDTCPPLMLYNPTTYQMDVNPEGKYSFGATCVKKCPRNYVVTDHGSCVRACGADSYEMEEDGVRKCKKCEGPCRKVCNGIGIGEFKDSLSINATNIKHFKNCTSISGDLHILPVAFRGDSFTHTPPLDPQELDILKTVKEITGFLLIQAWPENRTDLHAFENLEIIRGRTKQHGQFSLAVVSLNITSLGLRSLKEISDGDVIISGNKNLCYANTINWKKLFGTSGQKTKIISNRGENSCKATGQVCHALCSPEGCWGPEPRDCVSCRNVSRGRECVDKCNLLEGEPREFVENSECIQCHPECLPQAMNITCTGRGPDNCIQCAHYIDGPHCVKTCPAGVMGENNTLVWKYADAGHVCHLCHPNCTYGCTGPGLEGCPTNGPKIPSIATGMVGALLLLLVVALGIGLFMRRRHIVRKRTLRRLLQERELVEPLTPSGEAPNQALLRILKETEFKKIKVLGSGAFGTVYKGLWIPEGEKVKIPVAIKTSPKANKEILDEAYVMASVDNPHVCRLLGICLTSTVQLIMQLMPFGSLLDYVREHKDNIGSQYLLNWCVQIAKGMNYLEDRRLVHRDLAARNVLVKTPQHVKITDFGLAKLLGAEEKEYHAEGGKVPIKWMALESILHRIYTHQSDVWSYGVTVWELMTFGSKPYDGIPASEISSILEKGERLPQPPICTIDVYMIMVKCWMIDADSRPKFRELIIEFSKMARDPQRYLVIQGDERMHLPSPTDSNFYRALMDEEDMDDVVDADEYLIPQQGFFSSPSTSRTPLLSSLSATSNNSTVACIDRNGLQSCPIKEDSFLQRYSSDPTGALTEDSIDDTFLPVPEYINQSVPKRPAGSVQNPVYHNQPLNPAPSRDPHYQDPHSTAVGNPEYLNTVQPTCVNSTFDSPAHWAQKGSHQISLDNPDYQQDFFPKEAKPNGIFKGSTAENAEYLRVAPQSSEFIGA
Outline: (§1)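 Read-out is substrate-to-product conversion by mobility shift, stopped after incubation at room temperature with ATP and substrate, following a 10-minute room-temperature compound–enzyme pre-incubation. IC50 obtained by four-parameter variable-slope fitting of inhibition normalized between enzyme-free and uninhibited controls.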

[2] = biological target: EGFR WT (Homo sapiens, UniProt P00533); test: EGFR WT kinase test (mobility variation analysis, Caliper EZ Reader); format: biochemical; details: kinase enzymatic activity, Table 1
EGFR WT, sequence (P00533 25-1210): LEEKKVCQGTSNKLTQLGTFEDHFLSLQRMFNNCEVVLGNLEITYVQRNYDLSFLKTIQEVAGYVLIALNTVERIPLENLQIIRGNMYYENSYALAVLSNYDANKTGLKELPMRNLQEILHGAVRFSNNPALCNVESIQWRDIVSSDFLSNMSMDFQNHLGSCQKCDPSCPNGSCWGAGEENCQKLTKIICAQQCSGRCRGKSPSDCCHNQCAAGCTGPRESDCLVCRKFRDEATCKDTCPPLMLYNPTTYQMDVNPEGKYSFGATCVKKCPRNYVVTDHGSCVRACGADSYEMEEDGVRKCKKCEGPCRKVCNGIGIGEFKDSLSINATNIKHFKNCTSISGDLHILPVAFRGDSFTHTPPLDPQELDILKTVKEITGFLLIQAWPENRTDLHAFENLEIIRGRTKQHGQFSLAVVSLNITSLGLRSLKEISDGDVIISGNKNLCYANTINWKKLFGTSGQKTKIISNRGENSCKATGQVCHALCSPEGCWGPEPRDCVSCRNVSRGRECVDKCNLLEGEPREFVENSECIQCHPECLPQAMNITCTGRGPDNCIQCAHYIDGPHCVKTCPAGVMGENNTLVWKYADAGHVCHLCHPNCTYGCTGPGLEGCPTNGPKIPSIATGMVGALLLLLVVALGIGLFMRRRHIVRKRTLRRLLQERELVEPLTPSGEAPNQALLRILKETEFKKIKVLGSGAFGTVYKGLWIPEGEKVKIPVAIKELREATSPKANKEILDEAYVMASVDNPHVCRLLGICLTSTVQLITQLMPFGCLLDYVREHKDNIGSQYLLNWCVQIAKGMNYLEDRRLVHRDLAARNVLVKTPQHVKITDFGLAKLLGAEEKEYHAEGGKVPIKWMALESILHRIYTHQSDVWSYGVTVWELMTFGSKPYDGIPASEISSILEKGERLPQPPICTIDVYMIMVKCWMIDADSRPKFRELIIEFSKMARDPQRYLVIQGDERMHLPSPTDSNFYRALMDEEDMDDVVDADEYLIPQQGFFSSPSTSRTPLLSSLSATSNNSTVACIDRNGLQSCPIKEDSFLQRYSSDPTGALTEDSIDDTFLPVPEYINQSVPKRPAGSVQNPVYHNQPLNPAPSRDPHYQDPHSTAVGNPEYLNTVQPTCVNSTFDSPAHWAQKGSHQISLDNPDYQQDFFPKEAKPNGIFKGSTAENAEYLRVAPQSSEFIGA
Outline: as §1

[3] = biological target: IGF1R (Homo sapiens, UniProt P08069); test: IGF1R kinase test (mobility variation analysis, Caliper EZ Reader); format: biochemical; details: kinase enzymatic activity, Table 1; read-out: EGFR IGF1R IC50
Outline: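 Mobility-shift readout of substrate conversion, normalised to positive (no compound) and negative (no kinase) controls, gives % inhibition and IC50 by four-parameter fit. Compounds, 3-fold dilutions over 10 concentrations starting at 3000 nM, preincubated 10 min with kinase before ATP/substrate start; room temperature.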

[4] = biological target: Ba/F3 cells with EGFR Δ19del/T790M/C797S mutation gene stably overexpressed (Homo sapiens, UniProt P00533, T790M/C797S, cells depend on it, form not given); test: Ba/F3-Δ19del/T790M/C797S cell proliferation assay (CellTiter Glo, 72 hours); format: cell-based; details: Table 2, read-out: EGFR Δ19del/T790M/C797S IC50
Ba/F3 cells with EGFR Δ19del/T790M/C797S mutation gene stably overexpressed, sequence (P00533 with tags, fused parts or gaps DEL746-750/T790M/C797S, form open): as the sequence (P00533 with tags, fused parts or gaps DEL746-750/T790M/C797S, form open) above
Outline: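 Ba/F3 cells stably overexpressing wild-type EGFR or EGFR Δ19del/T790M/C797S were seeded at 2000 cells/well and incubated 72 h with compound. Viability was read by CellTiter-Glo luminescence, and IC50 came from a four-parameter logistic fit of signal against log concentration.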

[5] = biological target: Ba/F3-EGFR wild-type cell line (Homo sapiens, UniProt P00533); test: Ba/F3-EGFR wild-type cell proliferation assay (CellTiter Glo, 72 hours); format: cell-based; details: Table 2, read-out: EGFR WT IC50
Ba/F3-EGFR wild-type cell line, sequence (P00533 whole entry, stated change not applied): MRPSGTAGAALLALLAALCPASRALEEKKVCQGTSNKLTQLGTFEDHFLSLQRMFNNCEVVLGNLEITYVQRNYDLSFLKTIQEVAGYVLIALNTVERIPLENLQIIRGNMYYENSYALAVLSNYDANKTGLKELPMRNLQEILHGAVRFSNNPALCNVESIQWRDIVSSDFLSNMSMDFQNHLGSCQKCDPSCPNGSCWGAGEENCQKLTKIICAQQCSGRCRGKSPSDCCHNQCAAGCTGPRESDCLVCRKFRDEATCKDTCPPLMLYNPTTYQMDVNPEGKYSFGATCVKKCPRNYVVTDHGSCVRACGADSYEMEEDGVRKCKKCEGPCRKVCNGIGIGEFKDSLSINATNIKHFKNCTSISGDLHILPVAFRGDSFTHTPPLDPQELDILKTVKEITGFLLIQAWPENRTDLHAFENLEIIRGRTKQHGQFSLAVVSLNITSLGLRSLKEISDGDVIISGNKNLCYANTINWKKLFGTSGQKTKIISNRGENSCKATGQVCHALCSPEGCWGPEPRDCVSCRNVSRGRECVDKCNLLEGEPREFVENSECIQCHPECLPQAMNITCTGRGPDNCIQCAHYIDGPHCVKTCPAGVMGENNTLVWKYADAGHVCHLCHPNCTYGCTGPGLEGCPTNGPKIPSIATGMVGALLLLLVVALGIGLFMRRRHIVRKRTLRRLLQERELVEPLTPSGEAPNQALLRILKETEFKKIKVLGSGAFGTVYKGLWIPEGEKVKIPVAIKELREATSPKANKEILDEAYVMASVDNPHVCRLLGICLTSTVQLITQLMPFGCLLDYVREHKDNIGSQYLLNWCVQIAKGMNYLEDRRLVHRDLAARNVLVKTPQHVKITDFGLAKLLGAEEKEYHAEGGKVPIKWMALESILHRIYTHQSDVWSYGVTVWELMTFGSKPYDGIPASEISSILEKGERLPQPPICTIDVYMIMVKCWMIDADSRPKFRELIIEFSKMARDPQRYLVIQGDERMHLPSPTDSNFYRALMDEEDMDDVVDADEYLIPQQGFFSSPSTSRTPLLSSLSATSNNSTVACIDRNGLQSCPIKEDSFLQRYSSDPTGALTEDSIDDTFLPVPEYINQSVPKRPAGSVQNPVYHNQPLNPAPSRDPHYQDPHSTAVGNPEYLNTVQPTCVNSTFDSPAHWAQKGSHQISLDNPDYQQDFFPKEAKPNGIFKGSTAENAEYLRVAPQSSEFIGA
Method: Cell line: Ba/F3 cells with EGFR Δ19del/T790M/C797S mutation gene stably overexpressed named Ba/F3-Δ119del/T90M/C797S, and A431 and Ba/F3-EGFR wild-type cell line.
a) Centrifuge the growth cells in logarithmic phase at 1000 rpm for 5 minutes, resuspend the cells in culture medium, and then count the cells;
b) Inoculate the cells into a 96-well cell culture plate with a density of 2000 cells/well;
b) Incubate cells in an incubator for another 72 hours.
a) Take out the 96-well cell culture plate and add 50 μl CTG reagent (CellTiter Glo kit, promega, Cat #G7573);
b) Shake the plate for 2 minutes and let cool at room temperature for 10 minutes;
c) Read luminous signal value with PerkinElmer reader,
Analysis of Experimental Data
The data were analyzed by GraphPad Prism 6.0 software to obtain the fitting curve of compound activity.
Y=Min+(Max−Min)/(1+10^((Log IC50−X)*slope));
X: Logarithm of compound concentration; Y: luminous signal.

[6] = tested on: A431; test: A431 cell proliferation assay (CellTiter Glo, 72 hours); format: cell-based; details: cell proliferation, A431, 72 hours, Table 2, read-out: A431 IC50
Outline: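 Luminescence (CellTiter-Glo) after 72 h treatment gives viability, fitted by nonlinear regression to yield IC50. Cells seeded at 2000 per well; nine 3-fold concentrations from 1000 nM, DMSO final 0.1% (0.5% for certain compounds).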

Compound	IC50 [1]	IC50 [2]	IC50 [3]	GI50 [4]	GI50 [5]	IC50 ([6]; Homo sapiens, A-431, 72 h)	IC50 [6]
CCc1cc(Nc2ncc(Cl)c(Nc3ccc(-c4cnccn4)cc3P(C)(C)=O)n2)c(OC)cc1N1CCC(N2CCN(C)CC2)CC1 [Compound 32, (2-((5-Chloro-2-((5-ethyl-2-methoxy-4-(4-(4-methylpiperazin-1-yl)piperidin-1-yl)phenyl)amino)pyrimidin-4-yl)amino)-5-(pyrazin-2-yl)phenyl)dimethylphosphine oxide]	0.4 nM	19.3 nM	184 nM	17.8 nM	196 nM	749 nM	–
CCc1cc(Nc2ncc(Br)c(Nc3ccc(-c4ccc(C)nn4)cc3P(C)(C)=O)n2)c(OC)cc1N1CCC(N2CCN(C)CC2)CC1 [Compound 33, (2-((5-Bromo-2-((5-ethyl-2-methoxy-4-(4-(4-methylpiperazin-1-yl)piperidin-1-yl)phenyl)amino)pyrimidin-4-yl)amino)-5-(6-methylpyridazin-3-yl)phenyl)dimethylphosphine oxide]	0.3 nM	27.3 nM	177 nM	13.5 nM	437 nM	962 nM	–
CCc1cc(Nc2ncc(Br)c(Nc3ccc(-c4cnc(OC)nc4)cc3P(C)(C)=O)n2)c(OC)cc1N1CCC(N2CCN(C)CC2)CC1 [Compound 34, (2-((5-Bromo-2-((5-ethyl-2-methoxy-4-(4-(4-methylpiperazin-1-yl)piperidin-1-yl)phenyl)amino)pyrimidin-4-yl)amino)-5-(2-methoxypyrimidin-5-yl)phenyl)dimethylphosphine oxide]	0.2 nM	29.7 nM	91.1 nM	5.8 nM	180 nM	5150 nM	–
CCc1cc(Nc2ncc(Br)c(Nc3ccc(-c4cnc(N(C)C)cn4)cc3P(C)(C)=O)n2)c(OC)cc1N1CCC(N2CCN(C)CC2)CC1 [Compound 35, (2-((5-Bromo-2-((5-ethyl-2-methoxy-4-(4-(4-methylpiperazin-1-yl)piperidin-1-yl)phenyl)amino)pyrimidin-4-yl)amino)-5-(5-(dimethylamino)pyrazin-2-yl)phenyl)dimethylphosphine oxide]	0.5 nM	21.5 nM	238 nM	3.1 nM	259 nM	> 10000 nM	–
CCc1cc(Nc2ncc(Br)c(Nc3ccc(-n4cc(F)cn4)cc3P(C)(C)=O)n2)c(OC)cc1N1CCC(N2CCN(C)CC2)CC1 [Compound 44, (2-((5-Bromo-2-((5-ethyl-2-methoxy-4-(4-(4-methylpiperazin-1-yl)piperidin-1-yl)phenyl)amino)pyrimidin-4-yl)amino)-5-(4-fluoro-1H-pyrazol-1-yl)phenyl)dimethylphosphine oxide]	0.2 nM	11.5 nM	124 nM	9.5 nM	166 nM	2380 nM	–
CCc1cc(Nc2ncc(Br)c(Nc3ccc(-c4cnc5c(ccn5C)c4)cc3P(C)(C)=O)n2)c(OC)cc1N1CCC(N2CCN(C)CC2)CC1 [Compound 55]	1.5 nM	36.4 nM	497 nM	35 nM	1070 nM	2960 nM	–
CCc1cc(Nc2ncc(Br)c(Nc3ccc(-c4cncc(OC)n4)cc3P(C)(C)=O)n2)c(OC)cc1N1CCC(N2CCN(C)CC2)CC1 [Compound 59, (2-((5-Bromo-2-((5-ethyl-2-methoxy-4-(4-(4-methylpiperazin-1-yl)piperidin-1-yl)phenyl)amino)pyrimidin-4-yl)amino)-5-(6-methoxypyrazin-2-yl)phenyl)dimethylphosphine oxide]	1.3 nM	41 nM	395 nM	26.3 nM	1290 nM	–	2300 nM
CCc1cnc(-c2ccc(Nc3nc(Nc4cc(CC)c(N5CCC(N6CCN(C)CC6)CC5)cc4OC)ncc3Br)c(P(C)(C)=O)c2)nc1 [Compound 70]	0.9 nM	38.6 nM	246 nM	9 nM	407 nM	6290 nM	–
CCOc1cnc(-c2ccc(Nc3nc(Nc4cc(CC)c(N5CCC(N6CCN(C)CC6)CC5)cc4OC)ncc3Br)c(P(C)(C)=O)c2)nc1 [Compound 75]	0.5 nM	16 nM	91 nM	16.8 nM	1010 nM	> 10000 nM	–
CCc1cc(Nc2ncc(Br)c(Nc3ccc(-c4cnccn4)cc3P(C)(C)=O)n2)c(OC)cc1N1CCC(N2CCN(C)CC2)CC1 [Compound 78, (2-((5-Bromo-2-((5-ethyl-2-methoxy-4-(4-(4-methylpiperazin-1-yl)piperidin-1-yl)phenyl)amino)pyrimidin-4-yl)amino)-5-(pyrazin-2-yl)phenyl)dimethylphosphine oxide]	0.2 nM	12.6 nM	94 nM	7.2 nM	134 nM	1090 nM	–
CCc1cc(Nc2ncc(Br)c(Nc3ccc(-c4cnn(C)n4)c(F)c3P(C)(C)=O)n2)c(OC)cc1N1CCC(N2CCN(C)CC2)CC1 [Compound K-007, (6-((5-Bromo-2-((5-ethyl-2-methoxy-4-(4-(4-methylpiperazin-1-yl)piperidin-1-yl)phenyl)amino)pyrimidin-4-yl)amino)-2-fluoro-3-(2-methyl-2H-1,2,3-triazol-4-yl)phenyl)dimethylphosphine oxide]	0.1 nM	5.2 nM	54.9 nM	3.2 nM	130 nM	1440 nM	–
COc1cc(N2CCC(N3CCN(C)CC3)CC2)c(C)cc1Nc1ncc(Br)c(Nc2ccc(-c3cnn(C)n3)cc2P(C)(C)=O)n1 [Compound K-008, (2-((5-Bromo-2-((2-methoxy-5-methyl-4-(4-(4-methylpiperazin-1-yl)piperidin-1-yl)phenyl)amino)pyrimidin-4-yl)amino)-5-(2-methyl-2H-1,2,3-triazol-4-yl)phenyl)dimethylphosphine oxide]	0.24 nM	15 nM	120 nM	4.8 nM	169 nM	415 nM	–
C#Cc1cnn(-c2ccc(Nc3nc(Nc4cc(CC)c(N5CCC(N6CCN(C)CC6)CC5)cc4OC)ncc3Br)c(P(C)(C)=O)c2)c1 [Compound K-009, (2-((5-Bromo-2-((5-ethyl-2-methoxy-4-(4-(4-methylpiperazin-1-yl)piperidin-1-yl)phenyl)amino)pyrimidin-4-yl)amino)-5-(4-ethynyl-1H-pyrazol-1-yl)phenyl)dimethylphosphine oxide]	0.23 nM	21 nM	165 nM	16.4 nM	268 nM	2460 nM	–
C#Cc1cnc(-c2ccc(Nc3nc(Nc4cc(CC)c(N5CCC(N6CCN(C)CC6)CC5)cc4OC)ncc3Br)c(P(C)(C)=O)c2)cn1 [Compound K-010, (2-((5-Bromo-2-((5-ethyl-2-methoxy-4-(4-(4-methylpiperazin-1-yl)piperidin-1-yl)phenyl)amino)pyrimidin-4-yl)amino)-5-(5-ethynylpyrazin-2-yl)phenyl)dimethylphosphine oxide]	0.4 nM	17 nM	46 nM	7.2 nM	52.8 nM	693 nM	–
C#Cc1cnc(-c2ccc(Nc3nc(Nc4cc(C)c(N5CCC(N6CCN(C)CC6)CC5)cc4OC)ncc3Br)c(P(C)(C)=O)c2)cn1 [Compound K-011]	0.45 nM	28 nM	104 nM	7.4 nM	81.8 nM	4450 nM	–
